Measurements taken from US9549921B2, “Heterocyclic compounds and methods of use thereof for the treatment of hepatitis C” (priority 2014, dated 2017).
pIC50: −log10 of the molar value. Read-outs that look alike come from different tables or passages of the source.

Experiments:
HCV replicon genotype 1a = assay: HCV replicon assay, genotype 1a (cell ELISA for NS3/4A); assay type: cell-based, hepatitis C virus; conditions: for IC50: Hepatitis C virus, 96 h, read-out: 1a IC50 (nM), HCV genotype 1a replicon cells, 96 hours incubation, NS3/4A ELISA readout, % of DMSO control; for pIC50: read-out: 1a IC50, HCV genotype 1a replicon cells, 96 hours incubation, NS3/4A ELISA readout, % of DMSO control
Procedure, shortened: (§1)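 Stable neomycin-resistant replicon cell lines (genotype 1a or 1b) incubated 96 h with compound dilution series without G418. After washing and lysis, replication measured by cell ELISA for replicon-encoded NS3/4A protein; IC50 as % of DMSO control via four-parameter fit.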

HCV replicon genotype 1b = assay: HCV replicon assay, genotype 1b (cell ELISA for NS3/4A); assay type: cell-based, hepatitis C virus; conditions: for IC50: Hepatitis C virus, 96 h, read-out: 1b IC50 (nM), HCV genotype 1b replicon cells, 96 hours incubation, NS3/4A ELISA readout, % of DMSO control; for pIC50: read-out: 1b IC50, HCV genotype 1b replicon cells, 96 hours incubation, NS3/4A ELISA readout, % of DMSO control
Procedure, shortened: as §1

SMILES | IC50 (HCV replicon genotype 1a) | IC50 (HCV replicon genotype 1b) | pIC50 (HCV replicon genotype 1a) | pIC50 (HCV replicon genotype 1b)
CNC(=O)c1c(-c2ccc(F)cc2)oc2cc(N(C)S(C)(=O)=O)c([C@H]3CCCN(S(=O)(=O)c4cccc(F)c4)C3)cc12 [Example 130, 2-(4-fluorophenyl)-5-{(3R)-1-[(3-fluorophenyl)sulfonyl]piperidin-3-yl}-N-methyl-6-[methyl(methylsulfonyl)amino]-1-benzofuran-3-carboxamide] | 174 nM | 95.5 nM |  | 
CNC(=O)c1c(-c2ccc(F)cc2)oc2cc(N(C)S(C)(=O)=O)c([C@H]3CN(C(=O)c4cc5cccc(F)c5[nH]4)CCO3)cc12 (single isomer, unassigned) [Example 7, 5-(4-(7-fluoro-1H-indole-2-carbonyl)morpholin-2-yl)-2-(4-fluorophenyl)-N-methyl-6-(N-methylmethylsulfonamido)benzofuran-3-carboxamide] |  |  | 8.24 | 7.94
CNC(=O)c1c(-c2ccc(F)cc2)oc2cc(N(C)S(C)(=O)=O)c([C@@H]3CCCN(c4nc5ncccc5o4)C3)cc12 (single isomer, unassigned) [Example 53, 2-(4-fluorophenyl)-N-methyl-6-(N-methylmethylsulfonamido)-5-(1-(oxazolo[4,5-b]pyridin-2-yl)piperidin-3-yl)benzofuran-3-carboxamide] | 14.6 nM | 15.7 nM |  | 
CNC(=O)c1c(-c2ccc(F)cc2)oc2cc(N(C)S(C)(=O)=O)c([C@@H]3CCCN(c4nc5c(F)cccc5[nH]4)C3)cc12 (single isomer, unassigned) [Example 55, 5-(1-(4-fluoro-1H-benzo[d]imidazol-2-yl)piperidin-3-yl)-2-(4-fluorophenyl)-N-methyl-6-(N-methylmethylsulfonamido)benzofuran-3-carboxamide] |  |  | 8.25 | 8.44
CNC(=O)c1c(-c2ccc(F)cc2)oc2cc(N(C)S(C)(=O)=O)c([C@@H]3CCCN(C(=O)[C@H](N)c4ccccc4F)C3)cc12 (single isomer, unassigned) [Example 29] | 83.1 nM | 148 nM |  | 
CNC(=O)c1c(-c2ccc(F)cc2)oc2cc(N(C)S(C)(=O)=O)c([C@H]3CCCN(C(=O)c4cc5cccc(F)c5[nH]4)C3)cc12 [Example 31, (R)-5-(1-(7-fluoro-1H-indole-2-carbonyl)piperidin-3-yl)-2-(4-fluorophenyl)-N-methyl-6-(N-methylmethylsulfonamido)benzofuran-3-carboxamide] | 17.1 nM | 9.38 nM |  | 
CNC(=O)c1c(-c2ccc(F)cc2)oc2cc(N(C)S(C)(=O)=O)c([C@H]3CCCN(S(=O)(=O)CCc4ccccc4)C3)cc12 [Example 141, 2-(4-fluorophenyl)-N-methyl-6-[methyl(methylsulfonyl)amino]-5-{(3R)-1-[(2-phenylethyl)sulfonyl]piperidin-3-yl}-1-benzofuran-3-carboxamide] | 10.6 nM | 14.2 nM |  | 
CNC(=O)c1c(-c2ccc(F)cc2)oc2cc(N(C)S(C)(=O)=O)c([C@@H]3CCCN(C(=O)c4nc5ncccc5[nH]4)C3)cc12 [Example 35, (S)-5-(1-(1H-imidazo[4,5-b]pyridine-2-carbonyl)piperidin-3-yl)-2-(4-fluorophenyl)-N-methyl-6-(N-methylmethylsulfonamido)benzofuran-3-carboxamide] | 71.6 nM | 48.9 nM |  | 
CNC(=O)c1c(-c2ccc(F)cc2)oc2cc(N(C)S(C)(=O)=O)c([C@@H]3CCCN(C(=O)c4cc5c(F)cccc5n4C)C3)cc12 (single isomer, unassigned) [Example 26, 5-(1-(4-fluoro-1-methyl-1H-indole-2-carbonyl)piperidin-3-yl)-2-(4-fluorophenyl)-N-methyl-6-(N-methylmethylsulfonamido)benzofuran-3-carboxamide] |  |  | 7.80 | 7.90
CNC(=O)c1c(-c2ccc(F)cc2)oc2cc(N(C)S(C)(=O)=O)c([C@H]3CCCN(S(=O)(=O)c4ccc5ncsc5c4)C3)cc12 [Example 129, 5-[(3R)-1-(1,3-benzothiazol-6-ylsulfonyl)piperidin-3-yl]-2-(4-fluorophenyl)-N-methyl-6-[methyl(methylsulfonyl)amino]-1-benzofuran-3-carboxamide] | 194 nM | 110 nM |  | 
CNC(=O)c1c(-c2ccc(F)cc2)oc2cc(N(C)S(C)(=O)=O)c([C@H]3CCCN(C(=O)c4cc5ccccn5c4)C3)cc12 [Example 106, 2-(4-fluorophenyl)-5-[(3R)-1-(indolizin-2-ylcarbonyl)piperidin-3-yl]-N-methyl-6-[methyl(methylsulfonyl)amino]-1-benzofuran-3-carboxamide] | 123 nM | 51.5 nM |  | 
CNC(=O)c1c(-c2ccc(F)cc2)oc2cc(N(C)S(C)(=O)=O)c([C@@H]3CCCN(C(=O)c4cc5cccnc5[nH]4)C3)cc12 (stereo in doubt) [Example 66, 2-(4-fluorophenyl)-N-methyl-6-[methyl(methylsulfonyl)amino]-5-[1-(1H-pyrrolo[2,3-b]pyridin-2-ylcarbonyl)piperidin-3-yl]-1-benzofuran-3-carboxamide] | 92.6 nM | 21.2 nM |  | 
CNC(=O)c1c(-c2ccc(F)cc2)oc2cc(N(C)S(C)(=O)=O)c([C@@H]3CCCN(C(=O)c4cc5c(F)cccc5n4C)C3)cc12 (single isomer, unassigned) [Example 25, 5-(1-(4-fluoro-1-methyl-1H-indole-2-carbonyl)piperidin-3-yl)-2-(4-fluorophenyl)-N-methyl-6-(N-methylmethylsulfonamido)benzofuran-3-carboxamide] | 16.4 nM |  |  | 8.28
CNC(=O)c1c(-c2ccc(F)cc2)oc2cc(N(C)S(C)(=O)=O)c([C@@H]3CCCN(c4nc5c(F)cccc5[nH]4)C3)cc12 (single isomer, unassigned) [Example 56, 5-(1-(4-fluoro-1H-benzo[d]imidazol-2-yl)piperidin-3-yl)-2-(4-fluorophenyl)-N-methyl-6-(N-methylmethylsulfonamido)benzofuran-3-carboxamide] |  |  | 7.27 | 7.62
CNC(=O)c1c(-c2ccc(F)cc2)oc2cc(N(C)S(C)(=O)=O)c([C@@H]3CCCN(C(=O)c4c[nH]cc4-c4ccc(F)cc4)C3)cc12 [Example 71, 2-(4-fluorophenyl)-5-(1-{[4-(4-fluorophenyl)-1H-pyrrol-3-yl]carbonyl}piperidin-3-yl)-N-methyl-6-[methyl(methylsulfonyl)amino]-1-benzofuran-3-carboxamide] | 168 nM | 95.4 nM |  | 
CNC(=O)c1c(-c2ccc(F)cc2)oc2cc(N(C)S(C)(=O)=O)c([C@@H]3CCCN(S(=O)(=O)c4cnc5c(c4)OCCN5C)C3)cc12 [Example 127, 2-(4-fluorophenyl)-N-methyl-5-{(3S)-1-[(4-methyl-3,4-dihydro-2H-pyrido[3,2-b][1,4]oxazin-7-yl)sulfonyl]piperidin-3-yl}-6-[methyl(methylsulfonyl)amino]-1-benzofuran-3-carboxamide] | 90.2 nM | 32.4 nM |  | 
CNC(=O)c1c(-c2ccc(F)cc2)oc2cc(N(C)S(C)(=O)=O)c([C@@H]3CCCN(C(=O)c4cc5ccccc5[nH]4)C3)cc12 (single isomer, unassigned) [Example 22, 5-(1-(1H-indole-2-carbonyl)piperidin-3-yl)-2-(4-fluorophenyl)-N-methyl-6-(N-methylmethylsulfonamido)benzofuran-3-carboxamide] |  |  | 7.39 | 7.73
CNC(=O)c1c(-c2ccc(F)cc2)oc2cc(N(C)S(C)(=O)=O)c([C@H]3CCCN(C(=O)c4n[nH]c(=O)c5ccccc45)C3)cc12 [Example 97, 2-(4-fluorophenyl)-N-methyl-6-[methyl(methylsulfonyl)amino]-5-{(3R)-1-[(4-oxo-3,4-dihydrophthalazin-1-yl)carbonyl]piperidin-3-yl}-1-benzofuran-3-carboxamide] | 336 nM | 470 nM |  | 
CNC(=O)c1c(-c2ccc(F)cc2)oc2cc(N(C)S(C)(=O)=O)c([C@H]3CCCN(S(=O)(=O)c4cccc(C)c4)C3)cc12 [Example 142, 2-(4-fluorophenyl)-N-methyl-6-[methyl(methylsulfonyl)amino]-5-{(3R)-1-[(3-methylphenyl)sulfonyl]piperidin-3-yl}-1-benzofuran-3-carboxamide] | 198 nM | 91.7 nM |  | 
CNC(=O)c1c(-c2ccc(F)cc2)oc2cc(N(C)S(C)(=O)=O)c([C@@H]3CCCN(S(=O)(=O)c4ccc5c(c4)CC(=O)N5)C3)cc12 [Example 122, 2-(4-fluorophenyl)-N-methyl-6-[methyl(methylsulfonyl)amino]-5-{(3S)-1-[(2-oxo-2,3-dihydro-1H-indol-5-yl)sulfonyl]piperidin-3-yl}-1-benzofuran-3-carboxamide] | 78.8 nM | 22.1 nM |  | 
CNC(=O)c1c(-c2ccc(F)cc2)oc2cc(N(C)S(C)(=O)=O)c([C@H]3CCCN(S(=O)(=O)Cc4ccccn4)C3)cc12 [Example 139, 2-(4-fluorophenyl)-N-methyl-6-[methyl(methylsulfonyl)amino]-5-{(3R)-1-[(pyridin-2-ylmethyl)sulfonyl]piperidin-3-yl}-1-benzofuran-3-carboxamide] | 35 nM | 21.1 nM |  | 
CNC(=O)c1c(-c2ccc(F)cc2)oc2cc(N(C)S(C)(=O)=O)c([C@@H]3CCCN(c4nc5c(F)cccc5o4)C3)cc12 (single isomer, unassigned) [Example 49, 5-(1-(4-fluorobenzo[d]oxazol-2-yl)piperidin-3-yl)-2-(4-fluorophenyl)-N-methyl-6-(N-methylmethylsulfonamido)benzofuran-3-carboxamide] |  |  | 8.24 | 8.13
